Experimental data reported in the NIST ThermoML archive (doi:10.1021/acs.jced.8b01042).
± gives the expanded uncertainty stated by the source.

Tests used:
[1] = xn = mol fraction of the nth substance listed; settings: 298.15 K; 101.3 kPa; Liquid; Capillary tube (Ostwald / Ubbelohde) method; x1 = 0.66
[2] = 298.15 K; 100 kPa; Liquid; Capillary tube (Ostwald / Ubbelohde) method

viscosity [1] [mPa·s] | viscosity [2] [mPa·s] | SMILES
20.05 ± 0.84 | – | OC1COCOC1 [1,3-dioxan-5-ol] + OCC1COCO1
– | 10.06 ± 0.42 | CC1(C)OCC(CO)O1 (stereo not drawn) [2,2-dimethyl-1,3-dioxolane-4-methanol]
– | 1200 ± 97 | OCC(O)CO [glycerol]
